The record followed here is patent US9815787B2, “Sulfonamide derivative or pharmaceutically acceptable acid addition salt thereof” (UNIVERSITY OF TSUKUBA, priority 2013, dated 2017).

This assay has as its target T1, OX2R (Homo sapiens, UniProt O43614).
T1 construct: expressed in transfected cells; host or cells: CHO (Chinese hamster ovary) cells constitutively expressing the OX2R gene and NFAT-luciferase (CHOOX2R)
T1 sequence (O43614 1-444): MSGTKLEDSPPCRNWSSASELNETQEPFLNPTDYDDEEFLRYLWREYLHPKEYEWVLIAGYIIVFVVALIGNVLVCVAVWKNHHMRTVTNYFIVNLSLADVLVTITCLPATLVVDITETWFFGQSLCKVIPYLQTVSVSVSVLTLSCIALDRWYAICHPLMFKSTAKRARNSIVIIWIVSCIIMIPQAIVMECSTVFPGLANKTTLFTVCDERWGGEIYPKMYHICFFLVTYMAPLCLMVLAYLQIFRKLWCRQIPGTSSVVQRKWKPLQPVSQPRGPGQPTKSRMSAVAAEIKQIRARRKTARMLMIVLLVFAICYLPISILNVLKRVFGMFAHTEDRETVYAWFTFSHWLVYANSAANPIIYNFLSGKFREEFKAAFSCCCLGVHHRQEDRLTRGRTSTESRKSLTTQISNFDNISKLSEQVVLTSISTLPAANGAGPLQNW
Description: Evaluation of agonist activity against OX2R (CHOOX2R cells, Fura2AM fluorescence, FDSS3000). The class given is cell-based. The method, then: Evaluation of Agonist Activity Against OX2R
NFAT-luciferase gene and OX2R gene were each constitutively expressed in CHO cell, which is a cell line derived from Chinese hamster ovary to establish a cell line (CHOOX2R). The cells thereof were sown on a 96 well plate at 10000 cells/well, and cultured in a 5% FBS-added DMEM medium for 48 hr. […] After washing, HEPES buffer (75 μL) was added, a test compound solution (25 μL) was added, and changes in the fluorescence intensity were measured by FDSS3000 (Hamamatsu Photonics K.K.). The test compound was dissolved in DMSO (final concentration of DMSO was 1%), and diluted with HEPES buffer to a final concentration of 0.1 μM, 1.0 μM or 10 μM.

Where [1] appears, read: test compound 0.1 μM; CHOOX2R cells; relative to orexin-A as full agonist (100%).
Setting [2] is: test compound 1.0 μM; CHOOX2R cells; relative to orexin-A as full agonist (100%).
[3] abbreviates: test compound 10 μM; CHOOX2R cells; relative to orexin-A as full agonist (100%).
Where [4] appears, read: test compound 0.1 μM; relative to orexin-A as full agonist (100%); CHOOX2R cells.
Setting [5] is: test compound 1.0 μM; relative to orexin-A as full agonist (100%); CHOOX2R cells.
Setting [6] is: test compound 10 μM; relative to orexin-A as full agonist (100%); CHOOX2R cells.
[7] abbreviates: OX2R agonist activity; CHOOX2R cells.
The mark [8] stands for this setting: conversion with orexin-A as full agonist (maximum agonist activity 100%).

Where only a bound is given, the exact number is not on record here.

In the case of `COc1ccc(-c2cccc(C(=O)N(C)C)c2)cc1S(=O)(=O)Nc1cccc(NCCNC(=O)c2cnccc2Cl)c1` [Example 57, 4-chloro-N-(2-((3-(3′-(dimethylcarbamoyl)-4-methoxy-[1,1′-biphenyl]-3-ylsulfonamido)phenyl)amino)ethyl)nicotinamide], the “Response (0.1 μM (%))” value under setting [1] is under 5%. Further, the “Response (1.0 μM (%))” value under setting [2] stood at 9%. Also, the “Response (10 μM (%))” value under setting [3] was 87%.

Regarding `COc1ccccc1C(=O)NCCNc1cccc(NS(=O)(=O)c2cc(-c3cc(F)ccc3Cl)ccc2OC)c1` [Example 32, N-(2-((3-(2′-chloro-5′-fluoro-4-methoxy-[1,1′-biphenyl]-3-ylsulfonamide)phenyl)amino)ethyl)-2-methoxybenzamide], the “Response (0.1 μM (%))” value under setting [4] is given as under 5%. Moreover, the “Response (1.0 μM (%))” value under setting [5] came to 26%. Moreover, the “Response (10 μM (%))” value under setting [6] is reported as 75%.

On to `CCOc1ccc(-c2cccc(C(=O)N(C)C)c2)cc1S(=O)(=O)Nc1cccc(NCCNC(=O)c2ccccc2OC)c1` [Example 108, 4′-ethoxy-3′-(N-(3-((2-(2-methoxybenzamido)ethyl)amino)phenyl)sulfamoyl)-N,N-dimethyl-[1,1′-biphenyl]-3-carboxamide], for which the “Response (0.1 μM (%))” value under setting [4] is reported as 44%. In addition, the “Response (1.0 μM (%))” value under setting [5] stood at 81%. Moreover, the “Response (10 μM (%))” value under setting [6] is 82%.

As to `COc1cccc(C(=O)NCCNc2cccc(NS(=O)(=O)c3cc(-c4cc(F)ccc4Cl)ccc3OC)c2)c1` [Example 33, N-(2-((3-(2′-chloro-5′-fluoro-4-methoxy-[1,1′-biphenyl]-3-ylsulfonamide)phenyl)amino)ethyl)-3-methoxybenzamide], the “Response (0.1 μM (%))” value under setting [4] is on record as under 5%. In addition, under setting [5], the “Response (1.0 μM (%))” value is listed as 31%. Moreover, under setting [6], the “Response (10 μM (%))” value stood at 93%.

The compound `COc1cccc(C(=O)NCCNc2cccc(NS(=O)(=O)c3cc(-c4cccc(C(=O)N(C)C)c4)ccc3OC)c2)c1` [Example 41, 4′-methoxy-3′-(N-(3-((2-(3-methoxybenzamido)ethyl)amino)phenyl)sulfamoyl)-N,N-dimethyl-[1,1′-biphenyl]-3-carboxamide] came in with an EC50 under setting [7] of 33 nM. The same compound yielded an Emax under setting [8] of 57%. Under setting [1], the “Response (0.1 μM (%))” value is 70%. In addition, under setting [2], the “Response (1.0 μM (%))” value worked out at 107%. For the same compound, the “Response (10 μM (%))” value under setting [3] was determined as 115%.

Regarding `COc1cccc(C(=O)NCCNc2cccc(NS(=O)(=O)c3cc(-c4cccc(OC)c4)ccc3OC)c2)c1` [Example 31, N-(2-((3-(3′,4-dimethoxy-[1,1′-biphenyl]-3-ylsulfonamide)phenyl)amino)ethyl)-3-methoxybenzamide], the “Response (0.1 μM (%))” value under setting [4] is 6%. Further, under setting [5], the “Response (1.0 μM (%))” value is 67%. Further, the “Response (10 μM (%))” value under setting [6] is given as 103%.

`COc1ccc(-c2cccc(C(=O)N3CCC3)c2)cc1S(=O)(=O)Nc1cccc(NCCNC(=O)c2cccc(F)c2)c1` [Example 84, N-(2-((3-(3′-(azetidine-1-carbonyl)-4-methoxy-[1,1′-biphenyl]-3-ylsulfonamido)phenyl)amino)ethyl)-3-fluorobenzamide]: under setting [1], the “Response (0.1 μM (%))” value was determined as 7%. In addition, the “Response (1.0 μM (%))” value under setting [2] was 58%. Under setting [3], the “Response (10 μM (%))” value stood at 70%.

For the compound `COc1ccccc1C(=O)NCCNc1cccc(NS(=O)(=O)c2cc(-c3ccccc3C(=O)N(C)C)ccc2OC)c1` [Example 79, 4′-methoxy-3′-(N-(3-((2-(2-methoxybenzamido)ethyl)amino)phenyl)sulfamoyl)-N,N-dimethyl-[1,1′-biphenyl]-2-carboxamide], the “Response (0.1 μM (%))” value under setting [1] is reported as under 5%. In addition, the “Response (1.0 μM (%))” value under setting [2] is on record as 18%. The “Response (10 μM (%))” value under setting [3] turned out to be 34%.

Turning to `COc1ccc(-c2cccc(C(=O)N3CCC3)c2)cc1S(=O)(=O)Nc1cccc(NCCNC(=O)c2ccccc2Cl)c1` [Example 82, N-(2-((3-(3′-(azetidine-1-carbonyl)-4-methoxy-[1,1′-biphenyl]-3-ylsulfonamido)phenyl)amino)ethyl)-2-chlorobenzamide], under setting [1], the “Response (0.1 μM (%))” value is recorded as under 5%. Also, the “Response (1.0 μM (%))” value under setting [2] was found to be 51%. The “Response (10 μM (%))” value under setting [3] was 74%.

In the case of `COc1ccccc1C(=O)NCCNc1cccc(NS(=O)(=O)c2cc(-c3cc(Cl)cc(Cl)c3)ccc2OC)c1` [Example 27, N-(2-((3-(3′,5′-dichloro-4-methoxy-[1,1′-biphenyl]-3-ylsulfonamide)phenyl)amino)ethyl)-2-methoxybenzamide], the “Response (0.1 μM (%))” value under setting [4] is given as under 5%. Also, the “Response (1.0 μM (%))” value under setting [5] is under 5%. Under setting [6], the “Response (10 μM (%))” value is under 5%.

In turn, `COc1ccc(-c2cccc(C(=O)N(C)C)c2)cc1S(=O)(=O)Nc1cccc(NCCNC(=O)c2cccc(F)c2)c1` [Example 52, 3′-(N-(3-((2-(3-fluorobenzamido)ethyl)amino)phenyl)sulfamoyl)-4′-methoxy-N,N-dimethyl-[1,1′-biphenyl]-3-carboxamide] came in with an EC50 under setting [7] of 783 nM. Further, the maximum response (Emax) under setting [8] amounted to 84%. The “Response (0.1 μM (%))” value under setting [1] is recorded as 40%. In addition, the “Response (1.0 μM (%))” value under setting [2] is given as 79%. For the same compound, the “Response (10 μM (%))” value under setting [3] is 64%.

Consider `COc1ccc(-c2ccccc2F)cc1S(=O)(=O)Nc1cccc(NCCNC(=O)c2ccccc2Cl)c1` [Example 7, 2-chloro-N-(2-((3-(2′-fluoro-4-methoxy-[1,1′-biphenyl]-3-ylsulfonamide)phenyl)amino)ethyl)benzamide], for which the “Response (0.1 μM (%))” value under setting [4] was 10%. Besides, the “Response (1.0 μM (%))” value under setting [5] worked out at 62%. Also, under setting [6], the “Response (10 μM (%))” value was 145%.

In the case of `COc1ccc(-c2cccc(C(=O)N(C)C)c2)cc1S(=O)(=O)Nc1cccc(NCCNC(=O)c2ccccc2C#N)c1` [Example 71, 3′-(N-(3-((2-(2-cyanobenzamido)ethyl)amino)phenyl)sulfamoyl)-4′-methoxy-N,N-dimethyl-[1,1′-biphenyl]-3-carboxamide], the “Response (0.1 μM (%))” value under setting [1] is listed as under 5%. The “Response (1.0 μM (%))” value under setting [2] was found to be 39%. Also, the “Response (10 μM (%))” value under setting [3] came to 80%.

`COc1cccc(C(=O)NCCNc2cccc(NS(=O)(=O)c3cc(-c4ccccc4F)ccc3OC)c2)c1` [Example 2, N-(2-((3-(2′-fluoro-4-methoxy-[1,1′-biphenyl]-3-ylsulfonamide)phenyl)amino)ethyl)-3-methoxybenzamide]: the “Response (0.1 μM (%))” value under setting [4] was under 5%. Further, under setting [5], the “Response (1.0 μM (%))” value was 27%. Under setting [6], the “Response (10 μM (%))” value was 67%.

As to `COc1cccc(C(=O)NCCNc2cccc(NS(=O)(=O)c3cc(-c4cc(Cl)ccc4Cl)ccc3OC)c2)c1` [Example 26, N-(2-((3-(2′,5′-dichloro-4-methoxy-[1,1′-biphenyl]-3-ylsulfonamide)phenyl)amino)ethyl)-3-methoxybenzamide], the “Response (0.1 μM (%))” value under setting [4] was under 5%. For the same compound, the “Response (1.0 μM (%))” value under setting [5] is on record as 5%. The “Response (10 μM (%))” value under setting [6] is recorded as 29%.

Compound `COc1ccc(-c2cccc(C(=O)N(C)C)c2)cc1S(=O)(=O)Nc1cccc(NCCNC(=O)c2cc(F)ccc2F)c1` [Example 53, 3′-(N-(3-((2-(2,5-difluorobenzamido)ethyl)amino)phenyl)sulfamoyl)-4′-methoxy-N,N-dimethyl-[1,1′-biphenyl]-3-carboxamide] gave an EC50 under setting [7] of 1150 nM. The same compound gave a maximal response (Emax) under setting [8] of 87%. The “Response (0.1 μM (%))” value under setting [1] came to 46%. For the same compound, the “Response (1.0 μM (%))” value under setting [2] is listed as 89%. Moreover, the “Response (10 μM (%))” value under setting [3] came to 66%.

In the case of `COc1ccccc1C(=O)NCCNc1cccc(NS(=O)(=O)c2cc(-c3cccc(C(=O)N(C)C(C)(C)C)c3)ccc2OC)c1` [Example 76, N-(tert-butyl)-4′-methoxy-3′-(N-(3-((2-(2-methoxybenzamido)ethyl)amino)phenyl)sulfamoyl)-N-methyl-[1,1′-biphenyl]-3-carboxamide], the “Response (0.1 μM (%))” value under setting [1] was found to be 24%. In addition, the “Response (1.0 μM (%))” value under setting [2] is recorded as 95%. Moreover, the “Response (10 μM (%))” value under setting [3] is given as 98%.

With `COc1ccccc1C(=O)NCCNc1cccc(NS(=O)(=O)c2cc(-c3cccc(F)c3)ccc2OC)c1` [Example 109, N-(2-((3-(3′-fluoro-4-methoxy-[1,1′-biphenyl]-3-ylsulfonamido)phenyl)amino)ethyl)-2-methoxybenzamide], under setting [4], the “Response (0.1 μM (%))” value amounted to 13%. Besides, under setting [5], the “Response (1.0 μM (%))” value was 46%. Moreover, the “Response (10 μM (%))” value under setting [6] is on record as 47%.

With `COc1cc(OC)cc(-c2ccc(OC)c(S(=O)(=O)Nc3cccc(NCCNC(=O)c4ccccc4OC)c3)c2)c1` [Example 36, 2-methoxy-N-(2-((3-(3′,4,5′-trimethoxy-[1,1′-biphenyl]-3-ylsulfonamide)phenyl)amino)ethyl)benzamide], the “Response (0.1 μM (%))” value under setting [1] is listed as under 5%. The “Response (1.0 μM (%))” value under setting [2] worked out at 11%. Besides, under setting [3], the “Response (10 μM (%))” value is 68%.
